Values of other authors in article PMC8198792, “Prediction of Anticancer Peptides with High Efficacy and Low Toxicity by Hybrid Model Based on 3D Structure of Peptides” (International Journal of Molecular Sciences, 2021).
Read-outs that look alike come from different tables or passages of the source.

Tests used:
cancer cell lines = tested on: cancer cell lines; parameters: method as in 6 sources, ref CancerPPD [45] and SATPdb ||| ref CancerPPD/SATPdb ||| ref CancerPPD, SATPdb, Swissprot (PDB) ||| ref CancerPPD/SATPdb/Swissprot(PDB) ||| ref CancerPPD / SATPdb ||| ...; settings: 0 = non-ACP, cited from earlier work
From the text: Supplement ijms-22-05630-s001.zip/ACPs(seguence).xlsx, sheet "D1" | column: Activity || Supplement ijms-22-05630-s001.zip/ACPs(seguence).xlsx, sheet "D2" | column: Activity || Supplement ijms-22-05630-s001.zip/ACPs(seguence).xlsx, sheet "D3" | column: Activity || (+ 2 further places)

[1] = tested on: many types of cells, including non-cancer cells; settings: toxic peptides dataset TD2; class label 1 (toxic, positive set) or 0 (non-toxic AMP, negative set); ref SATPdb; cited from earlier work
[2] = ACPs dataset D3 (sheet "D3"), label 1 = ACP, ref CancerPPD/SATPdb
[3] = ACPs dataset D4 (sheet "D4"), label 1 = ACP, ref CancerPPD / SATPdb
[4] = ACPs dataset D5, sheet "D5", label 1 = ACP, ref CancerPPD [45] and SATPdb
[5] = ACPs dataset D3 (supplement sheet "D3"), 1 = ACP, ref CancerPPD [45] and SATPdb

Sequence	Activity (cancer cell lines; [2])	Activity (cancer cell lines; [3])	Activity (cancer cell lines; [4])	Activity [1]	Activity (cancer cell lines; [5])
GVLSAFKNALPGIMKIIV [satpdb14593]	0	0	0	0	–
GVWDWLKKTAKNVWNSDIVKQLKGKAINAAKNYVAEKIGATPS [satpdb11887]	–	0	0	0	0
FLSLIPHAINAVSAIAKHS [satpdb10076]	–	0	0	0	0
FLPLLASLFSGLF [satpdb11101]	–	0	0	0	0
FLSLLPSLVSGAVSLVKIL [satpdb10512]	–	0	0	0	0
FFPIVGKLLFGLSGLL [satpdb12681]	0	0	0	0	–
GLFGILGSVAKHVLPHVIPVVAEHL [satpdb11946]	0	0	0	0	–
LRPAILVRIK [satpdb13588]	0	0	0	0	–
VGKVLKQLKKVSAVAKVAMKKGAALLK [satpdb11069]	–	0	0	1	0
VIPIVSGLLSSLL [satpdb12918]	0	0	0	0	–
LIGPVLGLVGSALGGLLKKI [satpdb10453]	–	0	0	1	0
FASLLGKALKALAKQ [satpdb10678]	–	0	0	0	0
FLPLLVGAISSILPKIF [satpdb12883]	0	0	0	1	–
FIGAVAGLLSKIF [satpdb10850]	–	0	0	1	0
AILTTLANWARKFL [satpdb12672]	0	0	0	0	–
FLGLLPSIVSGAVSLVKKL [satpdb10320]	–	0	0	0	0
FLPILINLIHKGLL [satpdb14138]	0	0	0	0	–
KCNTATCATQRLANFLVHSSNNFGAILSSTNVGSNTY [satpdb11357]	–	0	0	0	0
GLFSVLGSVAKHLLPHVAPIIAEKL [satpdb13391]	0	0	0	0	–
ILQKAVLDCLKAAGSSLSKAAITAIYNKIT [satpdb12333]	0	0	0	0	–
VOLFPVOLFP [satpdb12868]	0	0	0	0	–

Sequence	Activity (cancer cell lines; [2])	Activity (cancer cell lines; [3])	Activity (cancer cell lines; [4])	Activity [1]	Activity (cancer cell lines; [5])
FLSTLWNAAKSIF [satpdb12345]	0	0	0	1	–
WRSLGRTLLRLSHALKPLARRSGW [satpdb10596]	–	0	0	0	0
RWKIFKKIEKVGRNVRDGIIKAGPAVAVVGQAATVVK [satpdb12319]	0	0	0	0	–
ILGAILPLVSGLLSNKL [satpdb12884]	0	0	0	0	–
VOLFPFFNQY [satpdb13046]	0	0	0	0	–
GRLQAFLAKMKEIAAQTL [satpdb13649]	0	0	0	0	–
LLSLVPHAINAVSAIAKHF [satpdb10338]	–	0	0	0	0
GLLSGILNTAGGLLGNLIGSLSN [satpdb13955]	0	0	0	0	–
GLWEKIKEKANELVSGIVEGVK [satpdb12905]	0	0	0	0	–
FLGAIAAALPHVINAVTNAL [satpdb16106]	–	–	–	1	–
RILRGVSRRIMRRILTGRR [satpdb20239]	–	–	–	1	–
IFGAILPLALGALKNLIK [satpdb27411]	–	–	–	1	–
GIGGALLSAGKAALKGLAKVLV [satpdb22839]	–	–	–	1	–
RRIPRPILLPWRPPRPIPRPQPQPIPRWL [satpdb15488]	–	–	–	0	–
FFPIVGKRLYGLL [satpdb15392]	–	–	–	0	–
FLGLLGSLL [satpdb15039]	–	–	–	0	–
GMWSKILGHLIR [satpdb20159]	–	–	–	1	–
GVVTDLLNTAGGLLGNLVGSLSG [satpdb21886]	–	–	–	1	–
FFPLLFGALSSHLPKLF [satpdb16485]	–	–	–	1	–
ILPWKWPWWPWRR [satpdb22480]	–	–	–	1	–
KISKKIMRTFLRRILTGKK [satpdb19592]	–	–	–	1	–

Sequence	Activity (cancer cell lines; [2])	Activity (cancer cell lines; [3])	Activity (cancer cell lines; [4])	Activity [1]	Activity (cancer cell lines; [5])
GIGGVLLGAGKATLKGLAKVLAEKYAN [satpdb26873]	–	–	–	1	–
GFRKFHKFWA [satpdb14908]	–	–	–	0	–
GLGSLVGNALRIGAKLL [satpdb15217]	–	–	–	0	–
GLFDIVKKIAGHIVSSI [satpdb13076]	–	–	–	0	–
LLGMIPLAISAISALSKL [satpdb26571]	–	–	–	1	–
LLGMIPLAISAISSLSKL [satpdb20037]	–	–	–	1	–
GVVDILKGAGKDLLAHLVGKISEKV [satpdb27434]	–	–	–	1	–
GFGPAFHSVSNFAKKHKTA [satpdb16916]	–	–	–	0	–
GVVTDLLKTAGKLLGNLVGSLSG [satpdb26504]	–	–	–	1	–
FFPLVLGALGSILPKIF [satpdb25475]	–	–	–	1	–
GFKDLLKGAAKALVKTVLF [satpdb25277]	–	–	–	1	–
GLPVCGETCVGGTCNTPGCTCSWPVCTRN [satpdb19932]	–	–	–	1	–
KAYSMPRCKYLFRAVLCWL [satpdb15879]	–	–	–	0	–
ALKAALLAILKIVRVIKK [satpdb15928]	–	–	–	0	–
ILPILSLIGGLLGK [satpdb11856]	–	–	–	0	–
GLVTGLLKTAGKLLGDLFGSLSG [satpdb20565]	–	–	–	1	–
FISGLIGGLMKAL [satpdb16102]	–	–	–	0	–
GILDAIKAFANALG [satpdb15517]	–	–	–	0	–
GFMKYIGPLIPHAVKAISDLI [satpdb17997]	–	–	–	1	–
FIPLVSGLFSRLL [satpdb15094]	–	–	–	0	–
FLPVILPVIGKLLSGIL [satpdb17809]	–	–	–	1	–
